Results on 11 molecules are retold here after patent US20240368115A1, “REGULATOR CONTAINING TRICYCLIC DERIVATIVE, PREPARATION METHOD THEREFOR AND APPLICATION THEREOF” (SHUJING BIOPHARMA CO., LTD, priority 2021, published 2024).

By IC50 is commonly meant the concentration at which inhibition is half-maximal. By EC50 is commonly meant the concentration giving half of the maximal effect. High values mean lower potency in that assay, low ones higher potency in that assay.

Type in all cases: cell-based
Experiment [1] deals with 5-HT2A receptor (Homo sapiens, UniProt P28223). The experiment is described as follows: Calcium flux test for 5-HT2A receptor. The settings on record: CHO cell strain stably expressing 5-HT2A receptor; for IC50: calcium flux, antagonism of serotonin; for 5-HT2A Max Inh %: positive control ketanserin 10^−7 M. The protocol:
• Fluo-4 calcium flux detection kit was purchased from Invitrogen; a CHO cell strain stably expressing 5-HT2A receptor was purchased from PerkinElmer; serotonin was purchased from Sigma; ketanserin was purchased from Targetmol; polylysine-coated 384-well plates and 384-well compound plates were purchased from Greiner Bio-One. Molecular Device FLIPR, Agilent Bravo liquid workstation, and Countstar BioTech cell counter.
• (1) The cryopreserved cells were rapidly thawed in a water bath at 37° C., and the cells were resuspended in a plating medium. The cryopreservation solution was removed by centrifugation at 200×g. The pellet was resuspended in an appropriate amount of plating medium, 20 μL of cell suspension was counted using a cell counter, and the cell density was diluted to 1×10^6 cells/mL. • (2) 20 μL of cell suspension was added to a polylysine-coated 384-well plate (2×10^4 cells/well). • (3) The cell plate was incubated in a 37° C./5% CO2 incubator for 16-20 h.
• (1) The cell plate was taken out from the incubator and centrifuged at 100×g to remove the medium. 20 μL of experimental buffer was added, and then 20 μL of 2× fluorescent probe solution was added. […] The cell plate and agonist positive compound plate were placed into the FLIPR instrument, the detection program was run, 10 μL of the diluted compound was transferred from the agonist compound plate to the cell plate, and the fluorescence signal was read. […] The cell plate and test compound plate were placed in the FLIPR instrument, the detection program was run, and 10 μL of the diluted compound was transferred from the test compound plate to the cell plate. […] The test compound plate was then taken out, and the agonist positive compound plate with 6×EC50 concentration was placed.
Inhibition rate (Inhibition %)=(negative control reading value−compound reading value)/(negative control reading value−positive control reading value)×100%

In experiment [2] the target is T1, 5-HT1A receptor (Homo sapiens, UniProt P08908).
T1 construct: expressed in transfected cells
T1 sequence (P08908 1-422): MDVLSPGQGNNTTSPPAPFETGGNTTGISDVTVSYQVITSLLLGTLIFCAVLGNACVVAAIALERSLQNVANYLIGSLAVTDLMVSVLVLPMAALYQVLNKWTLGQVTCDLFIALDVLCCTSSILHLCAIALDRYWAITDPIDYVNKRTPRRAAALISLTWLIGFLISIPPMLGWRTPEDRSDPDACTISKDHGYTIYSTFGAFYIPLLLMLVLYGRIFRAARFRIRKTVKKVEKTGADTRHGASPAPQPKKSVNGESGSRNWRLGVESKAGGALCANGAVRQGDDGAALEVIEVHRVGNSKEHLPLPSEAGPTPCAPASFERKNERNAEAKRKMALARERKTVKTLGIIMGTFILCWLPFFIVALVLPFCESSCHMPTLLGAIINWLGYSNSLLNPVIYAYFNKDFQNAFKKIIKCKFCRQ
The experiment is described as follows: 5-HT1A receptor cAMP agonist test. Conditions: HEK293 cell strain stably expressing 5-HT1A receptor; for EC50: cAMP, forskolin 2.5×10^−7 M; for 5-HT1A Max Act %: positive control serotonin 10^−6 M. The text has this:
• cAMP detection kit was purchased from Cisbio; an HEK293 cell strain stably expressing 5-HT1A receptor was constructed by Shanghai Shujing Biopharma Co., Ltd.; serotonin, forskolin, and IBMX were purchased from Sigma; ProxiPlate-384 well plates were purchased from PerkinElmer; HBSS was purchased from Thermo Fisher Scientific.
(§1) • (1) The cultured cells were digested with trypsin, and the cell suspension was washed with HBSS buffer after the digestion was terminated. The medium was removed by centrifugation at 200×g. The pellet was resuspended in an appropriate amount of experimental buffer, and 20 μL of cell suspension was counted using a cell counter and diluted to 0.4×10^6 cells/mL. • (2) 5 μL of cell suspension was added to a ProxiPlate-384 well plate (2×10^3 cells/well). • (3) Test compounds were serially diluted in an experimental buffer, and 5 μL of the mixed solution was transferred to the reaction plate with Bravo.

The target in experiment [3] is T2, D2S receptor (Homo sapiens, UniProt P14416).
T2 construct: expressed in transfected cells
The experiment is described as follows: D2S receptor cAMP agonist test. Conditions: HEK293 cell strain stably expressing D2S receptor; for EC50: cAMP, forskolin 5×10^−7 M; for D2S Max Act %: positive control dopamine 1×10^−7 M.
Description: cAMP detection kit was purchased from Cisbio; an HEK293 cell strain stably expressing D2S receptor was constructed by Shanghai Shujing Biopharma Co., Ltd.; dopamine, forskolin, and IBMX were purchased from Sigma; ProxiPlate-384 well plates were purchased from PerkinElmer; HBSS was purchased from Thermo Fisher Scientific.
as §1, with “0.6×10^6” for “0.4×10^6”, “(3×10^3” for “(2×10^3”

Experiment [4] concerns the target T3, D2L receptor (Homo sapiens, UniProt P14416).
T3 construct: expressed in transfected cells
The experiment is described as follows: D2L receptor cAMP agonist test. The settings on record: HEK293 cell strain stably expressing D2L receptor; for EC50: cAMP, forskolin 0.5 μM; for D2L Max Act %: positive control dopamine 1 μM. How it is done: • cAMP detection kit was purchased from Cisbio; an HEK293 cell strain stably expressing D2L receptor was constructed by Shanghai Shujing Biopharma Co., Ltd.; dopamine, forskolin, and IBMX were purchased from Sigma; ProxiPlate-384 well plates were purchased from PerkinElmer; HBSS was purchased from Thermo Fisher Scientific.
• (1) The cryopreserved cells were thawed in a water bath at 37° C., the cell suspension was resuspended in HBSS buffer, and the mixed solution was centrifuged at 750 rpm for 5 min to remove the medium. The pellet was resuspended in an appropriate amount of experimental buffer, and an appropriate amount of cell suspension was diluted to 0.4×10^6 cells/mL. • (2) 5 μL of cell suspension was added to a ProxiPlate-384 well plate (2×10^3 cells/well), and the plate was centrifuged at 1000 rpm for 1 min. • (3) Test compounds were serially diluted in an experimental buffer, and 5 μL of the mixed solution was transferred to the reaction plate with Bravo.

Sequence of 5-HT2A receptor (P28223 whole entry): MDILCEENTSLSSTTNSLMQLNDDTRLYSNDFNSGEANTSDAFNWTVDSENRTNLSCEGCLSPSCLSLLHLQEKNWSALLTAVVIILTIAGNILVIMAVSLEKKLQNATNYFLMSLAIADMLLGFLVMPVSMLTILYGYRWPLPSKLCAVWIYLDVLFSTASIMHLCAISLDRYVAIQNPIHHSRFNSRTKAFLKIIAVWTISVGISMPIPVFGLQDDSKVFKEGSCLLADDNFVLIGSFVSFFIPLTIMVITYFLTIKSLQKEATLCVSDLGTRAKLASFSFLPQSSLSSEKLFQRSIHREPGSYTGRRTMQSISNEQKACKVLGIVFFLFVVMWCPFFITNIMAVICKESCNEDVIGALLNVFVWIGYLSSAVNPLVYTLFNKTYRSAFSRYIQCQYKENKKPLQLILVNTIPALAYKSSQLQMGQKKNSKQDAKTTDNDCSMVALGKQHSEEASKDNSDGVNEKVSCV
T2 sequence (P14416 1-414 isoform P14416-2): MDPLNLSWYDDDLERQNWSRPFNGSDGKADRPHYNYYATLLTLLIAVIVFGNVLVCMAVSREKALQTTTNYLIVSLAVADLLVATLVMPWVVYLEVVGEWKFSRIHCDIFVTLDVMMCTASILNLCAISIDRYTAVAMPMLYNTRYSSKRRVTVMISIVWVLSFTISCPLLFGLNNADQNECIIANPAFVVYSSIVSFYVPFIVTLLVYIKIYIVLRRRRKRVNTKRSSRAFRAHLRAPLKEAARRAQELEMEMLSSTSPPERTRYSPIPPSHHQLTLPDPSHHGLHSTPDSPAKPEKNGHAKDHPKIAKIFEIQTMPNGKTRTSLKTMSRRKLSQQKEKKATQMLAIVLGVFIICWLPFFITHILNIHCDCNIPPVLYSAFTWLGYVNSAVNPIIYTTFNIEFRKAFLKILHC
T3 sequence (P14416 whole entry): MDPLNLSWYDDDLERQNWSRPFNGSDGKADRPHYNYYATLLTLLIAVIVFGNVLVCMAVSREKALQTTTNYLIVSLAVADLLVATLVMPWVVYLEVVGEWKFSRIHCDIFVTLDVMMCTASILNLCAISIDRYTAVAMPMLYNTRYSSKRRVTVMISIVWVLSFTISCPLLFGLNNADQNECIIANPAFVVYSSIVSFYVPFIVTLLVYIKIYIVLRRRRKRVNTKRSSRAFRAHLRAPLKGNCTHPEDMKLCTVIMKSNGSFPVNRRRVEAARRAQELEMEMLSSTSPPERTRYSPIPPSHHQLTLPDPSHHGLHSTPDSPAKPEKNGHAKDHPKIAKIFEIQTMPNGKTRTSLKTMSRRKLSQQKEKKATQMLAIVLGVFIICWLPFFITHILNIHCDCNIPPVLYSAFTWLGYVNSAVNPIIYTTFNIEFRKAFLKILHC

`O=C1Nc2cc(OCCCCN3CCN(c4cccc5c4CCC5)CC3)ccc2C2CC12` (single isomer, unassigned) [Example 43-P1]: in experiment [1], the IC50 was found to be 853 nM and the “5-HT2A Max Inh %” value is on record as 100.7%. In experiment [2], it took 194 nM to reach a half-maximal effect (EC50) and the “5-HT1A Max Act %” value amounted to 68.3%. In addition, in experiment [3], a half-maximal response (EC50) required 1.3 nM and the “D2S Max Act %” value was found to be 123.1%. Further, in experiment [4], the response was half-maximal at 0.9 nM (EC50) and the “D2L Max Act %” value turned out to be 37.9%.
In the case of `O=C1Nc2cc(OCCCCN3CCN(c4cccc5c4CCC5)CC3)ccc2C2CC12` (single isomer, unassigned) [Example 43-P2], in experiment [1], the IC50 came out at 1130 nM and the “5-HT2A Max Inh %” value turned out to be 96.6%. In addition, in experiment [2], the EC50 stood at 92.4 nM and the “5-HT1A Max Act %” value was determined as 60.6%. For the same molecule, in experiment [3], the EC50 was found to be 0.92 nM and the “D2S Max Act %” value worked out at 125.3%. Moreover, in experiment [4], the response was half-maximal at 0.25 nM (EC50) and the “D2L Max Act %” value is reported as 35.7%.
For the molecule `O=C1Nc2cc(OCCCCN3CCN(c4cccc5c4OCC5)CC3)ccc2C2CC12` (single isomer, unassigned) [Example 44-P1], in experiment [1], the IC50 is 192 nM and the “5-HT2A Max Inh %” value was 99.6%. Further, in experiment [2], a half-maximal response (EC50) required 12.7 nM and the “5-HT1A Max Act %” value was 49.5%. In experiment [3], the EC50 was 0.98 nM and the “D2S Max Act %” value is on record as 96.8%. Besides, in experiment [4], the half-maximal effective concentration (EC50) is 0.26 nM and the “D2L Max Act %” value was found to be 45.9%.
As to `O=C1Nc2cc(OCCCCN3CCN(c4cccc5c4OCC5)CC3)ccc2C2CC12` (single isomer, unassigned) [Example 44-P2], in experiment [1], the IC50 amounted to 290 nM and the “5-HT2A Max Inh %” value amounted to 99.7%. Further, in experiment [2], the EC50 is 7.05 nM and the “5-HT1A Max Act %” value amounted to 48.0%. Besides, in experiment [3], a half-maximal effect (EC50) was put at 0.92 nM and the “D2S Max Act %” value was 89.1%. In experiment [4], the EC50 was determined as 0.22 nM and the “D2L Max Act %” value worked out at 53.9%.
As to `O=C1Nc2cc(OCCCCN3CCN(c4cccc(O)c4Cl)CC3)ccc2C2CC12` (stereo not shown) [Example 38, 5-(4-(4-(2-Chloro-3-hydroxyphenyl)piperazin-1-yl)butoxy)-1,1a,3,7b-tetrahydro-2H-cyclopropa[c]quinolin-2-one], in experiment [1], the IC50 was 4850 nM and the “5-HT2A Max Inh %” value was 98.1%. Further, in experiment [3], the EC50 was 0.88 nM and the “D2S Max Act %” value was 92.4%. In addition, in experiment [4], the EC50 came out at 1.39 nM and the “D2L Max Act %” value is listed as 32.3%.
Turning to `O=C1Nc2cc(OCCCCN3CCN(c4cccc(Cl)c4O)CC3)ccc2C2CC12` (stereo not shown) [Example 39, 5-(4-(4-(3-Chloro-2-hydroxyphenyl)piperazin-1-yl)butoxy)-1,1a,3,7b-tetrahydro-2H-cyclopropa[c]quinolin-2-one], in experiment [1], the IC50 amounted to 2930 nM and the “5-HT2A Max Inh %” value was determined as 94.2%.
Consider `O=C1Nc2cc(OCCCCN3CCN(c4cccc5c4CCC5)CC3)ccc2C2CC12` (stereo not shown) [Example 43, 5-(4-(4-(2,3-Dihydro-1H-inden-4-yl)piperazin-1-yl)butoxy)-1,1a,3,7b-tetrahydro-2H-cyclopropa[c]quinolin-2-one], for which, in experiment [1], the IC50 was 971 nM and the “5-HT2A Max Inh %” value was determined as 100.3%. Also, in experiment [2], the EC50 is 158 nM and the “5-HT1A Max Act %” value worked out at 67.7%. In addition, in experiment [3], the EC50 is 0.92 nM and the “D2S Max Act %” value came to 134.9%. Besides, in experiment [4], the 50% effective concentration (EC50) was found to be 0.3 nM and the “D2L Max Act %” value was determined as 42.8%.
With `O=C1Nc2cc(OCCCCN3CCN(c4cccc5c4OCC5)CC3)ccc2C2CC12` (stereo not shown) [Example 44, 5-(4-(4-(2,3-Dihydrobenzofuran-7-yl)piperazin-1-yl)butoxy)-1,1a,3,7b-tetrahydro-2H-cyclopropa[c]quinolin-2-one], in experiment [1], the IC50 came to 260 nM and the “5-HT2A Max Inh %” value came out at 99.7%. Also, in experiment [2], the EC50 is 11.2 nM and the “5-HT1A Max Act %” value is recorded as 58.9%. For the same molecule, in experiment [3], the EC50 came to 0.93 nM and the “D2S Max Act %” value stood at 91.0%. For the same molecule, in experiment [4], the EC50 was 0.37 nM and the “D2L Max Act %” value was 44.7%.
For the molecule `O=C1Nc2cc(OCCCCN3CCN(c4cccc5c4CC(F)(F)C5=O)CC3)ccc2C2CC12` (stereo not shown) [Example 47, 5-(4-(4-(2,2-difluoro-1-one-2,3-dihydro-1H-inden-4-yl)piperazin-1-yl)butoxy)-1,1a,3,7b-tetrahydro-2H-cyclopropa[c]quinolin-2-one], in experiment [1], the IC50 was found to be 268 nM and the “5-HT2A Max Inh %” value was found to be 96.0%. Besides, in experiment [2], the response was half-maximal at 207 nM (EC50) and the “5-HT1A Max Act %” value is given as 75.8%. For the same molecule, in experiment [3], the response was half-maximal at 0.97 nM (EC50) and the “D2S Max Act %” value is given as 102.9%. In addition, in experiment [4], the EC50 was determined as 0.84 nM and the “D2L Max Act %” value amounted to 35.9%.
Consider `O=C1Nc2cc(OCCCCN3CCN(c4cccc5ccsc45)CC3)ccc2C2CC12` (stereo not shown) [Example 48, 5-(4-(4-(Benzo[b]thiophen-7-yl)piperazin-1-yl)butoxy)-1,1a,3,7b-tetrahydro-2H-cyclopropa[c]quinolin-2-one], for which, in experiment [1], the IC50 was found to be 2410 nM and the “5-HT2A Max Inh %” value came to 100.5%. Besides, in experiment [2], it took 366 nM to reach a half-maximal effect (EC50) and the “5-HT1A Max Act %” value is 55.2%. Besides, in experiment [3], the concentration giving a half-maximal response (EC50) came out at 0.89 nM and the “D2S Max Act %” value was found to be 114.8%. Besides, in experiment [4], the midpoint of the response, the EC50, lay at 0.49 nM and the “D2L Max Act %” value worked out at 49.0%.
For `O=C1Nc2cc(OCCCCN3CCN(c4cccc5[nH]ccc45)CC3)ccc2C2CC12` (stereo not shown) [Example 52, 5-(4-(4-(1H-Indol-4-yl)piperazin-1-yl)butoxy)-1,1a,3,7b-tetrahydro-2H-cyclopropa[c]quinolin-2-one], in experiment [1], the IC50 is 1590 nM and the “5-HT2A Max Inh %” value is on record as 99.9%. Further, in experiment [4], the EC50 amounted to 0.31 nM and the “D2L Max Act %” value is recorded as 65.3%.
